Six molecules from DBAASP can be followed below.

Values after ≈ are worked out from the molar mass of the structure shown.

What all share (experiment): ≥ marks a high value that may be exact or a test limit, other limits are often not marked, values filed in µg/mL are converted to µM
Test [1] relates to Staphylococcus aureus ATCC 29213.
Test [2] has as its system Candida albicans MDM8.
Test [3] relates to Candida tropicalis IOC 4560.
Test [4] deals with Bacillus subtilis ATCC 6633.
The subject of test [5] is Bacillus megaterium ATCC 10778.
For test [6], the system named is Serratia marcescens ATCC 4112.
The test system of test [7] is Enterobacter cloacae beta-12.
The test system of test [8] is Escherichia coli SBS 363.
Test [9] deals with Pseudomonas aeruginosa ATCC 27853.
Test [10] has as its system Micrococcus luteus A270.
The test system of test [11] is Escherichia coli KCTC 1682.
The test system of test [12] is Enterococcus faecalis KCTC 2011.
Test [13] has as its system Staphylococcus aureus KCTC 1621.
Test [14] relates to Staphylococcus epidermidis KCTC 1917.
For test [15], the system named is Proteus vulgaris KCTC 2433.
The test system of test [16] is Pseudomonas aeruginosa KCTC 1637.
Test [17] concerns Bacillus subtilis KCTC 3068.
Test [18] deals with Salmonella typhimurium KCTC 1926.
Test [19] deals with Escherichia coli ATCC 8739.
The test system of test [20] is Acinetobacter baumannii ATCC 17978.
Test [21] relates to Staphylococcus aureus HNCMO 112011.
The subject of test [22] is Staphylococcus aureus ATCC 15752.
Test [23] has as its system Salmonella typhimurium KCTC 2370.
The test system of test [24] is Micrococcus luteus ATCC 10240.
For test [25], the system named is Escherichia coli KCTC 2223.
Test [26] has as its system Salmonella enterica subsp. enterica serovar Pullorum C79-13.
Test [27] has as its system Salmonella enterica subsp. enterica serovar Typhi CMCC 50071.
The test system of test [28] is Listeria monocytogenes CMCC 54004.
Test [29] deals with Escherichia coli UB1005.
For test [30], the system named is Staphylococcus aureus CMCC 26074.
Test [31] concerns Staphylococcus aureus ATCC 25923.
Test [32] relates to Salmonella enterica subsp. enterica serovar Typhimurium ATCC 14028.
Test [33] concerns Salmonella enterica subsp. enterica serovar Typhimurium C77-31.
Test [34] has as its system Salmonella enterica subsp. enterica CMCC 47020.
The subject of test [35] is Cronobacter sakazakii ATCC 29544.
Test [36] concerns Bacillus cereus CMCC 6303.
The subject of test [37] is Escherichia coli BL21AI.
The subject of test [38] is Micrococcus luteus DSM 1790.

As for `CC(C)C[C@H](NC(=O)[C@H](C)NC(=O)[C@H](CCCN=C(N)N)NC(=O)[C@H](CC(C)C)NC(=O)[C@@H](N)Cc1ccccc1)C(=O)N[C@@H](Cc1c[nH]c2ccccc12)C(=O)N[C@@H](CC(N)=O)C(=O)N[C@H](C(=O)N[C@@H](C)C(=O)N[C@@H](CCCCN)C(=O)N[C@@H](CO)C(=O)N[C@H](C(=O)N[C@@H](Cc1ccccc1)C(N)=O)C(C)C)C(C)C` [FLRALWNVAKSVF], the MIC in [1] amounted to 1.6 µM (≈ 2.48 µg/mL); in [2], 3.1 µM (≈ 4.8 µg/mL); in [3], 1.6 µM (≈ 2.48 µg/mL); in test [4], 0.8 µM (≈ 1.24 µg/mL); in test [5] it was 1.6 µM (≈ 2.48 µg/mL); in test [6] it was 0.4 µM (≈ 0.62 µg/mL). The MIC in [7] was found to be 12.5 µM (≈ 19.4 µg/mL); in test [8], 1.6 µM (≈ 2.48 µg/mL); in test [9] it was 12.5 µM (≈ 19.4 µg/mL); in [10] it was 1.6 µM (≈ 2.48 µg/mL).
With `CC(C)C[C@H](NC(=O)[C@H](CC(C)C)NC(=O)[C@H](CCCCN)NC(=O)[C@H](CC(C)C)NC(=O)[C@H](CC(C)C)NC(=O)[C@H](CCCCN)NC(=O)[C@H](CCCCN)NC(=O)[C@H](CC(C)C)NC(=O)[C@H](CC(C)C)NC(=O)[C@H](CCCCN)NC(=O)[C@H](CCCCN)NC(=O)[C@H](Cc1c[nH]c2ccccc12)NC(=O)[C@@H](N)CCCCN)C(=O)N[C@@H](CCCCN)C(=O)N[C@@H](CCCCN)C(=O)O` [KWKKLLKKLLKLLKK], the MIC in [11] is 22.6 µM (≈ 43.2 µg/mL); in test [12], 16 µM (≈ 30.5 µg/mL); in test [13], 8 µM (≈ 15.3 µg/mL); in test [14], 22.6 µM (≈ 43.2 µg/mL); in [15] it was no less than 32 µM; in test [16], no less than 32 µM. Besides, the MIC in test [17] is 11.3 µM (≈ 21.6 µg/mL); in [18] it was no less than 32 µM.
As for `CC(C)C[C@H](NC(=O)[C@@H]1CCCN1C(=O)[C@H](CCCN=C(N)N)NC(=O)[C@H](CCCN=C(N)N)NC(=O)[C@H](CS)NC(=O)[C@H](CCC(N)=O)NC(=O)[C@@H](N)CCC(N)=O)C(=O)N[C@@H](Cc1ccc(O)cc1)C(=O)N[C@@H](CS)C(=O)N[C@@H](CCCN=C(N)N)C(=O)N[C@@H](CCCN=C(N)N)C(=O)N[C@@H](CCCN=C(N)N)C(=O)N[C@@H](Cc1c[nH]c2ccccc12)C(=O)N[C@@H](CO)C(=O)N[C@@H](Cc1cnc[nH]1)C(=O)N1CCC[C@H]1C(=O)N[C@@H](CCC(N)=O)C(=O)N[C@@H](Cc1ccccc1)C(=O)N[C@@H](CCC(=O)O)C(=O)N[C@@H](CCCCN)C(=O)O` [QQCRRPLYCRRRWSHPQFEK], the MIC in [19], in test [20] and in [21] was 25 µM (≈ 66.9 µg/mL) in each case.
With `CC(C)[C@H](NC(=O)[C@H](CCCCN)NC(=O)[C@@H](N)CCCN=C(N)N)C(=O)N[C@@H](CCCN=C(N)N)C(=O)NCC(=O)N1CCC[C@H]1C(=O)N1CCC[C@H]1C(=O)O` [RKVRGPP], the MIC in test [22], in [23], in test [24] and in [25] was no less than 32 µM each time.
On to `CC[C@H](C)[C@H](NC(=O)[C@H](CCCN=C(N)N)NC(=O)[C@H](CCCN=C(N)N)NC(=O)[C@H](Cc1c[nH]c2ccccc12)NC(=O)[C@@H](N)CCCN=C(N)N)C(=O)N[C@H](C(=O)N[C@H](C(=O)N[C@H](C(=O)N[C@@H](CCCN=C(N)N)C(=O)N[C@H](C(=O)N[C@@H](CCCN=C(N)N)C(=O)N[C@@H](CCCN=C(N)N)C(N)=O)C(C)C)[C@@H](C)CC)C(C)C)C(C)C` [RWRRIVVIRVRR], for which the MIC in test [26] is no less than 32 µM; in test [27], 8 µM (≈ 13.3 µg/mL); in test [28], 2 µM (≈ 3.33 µg/mL); in [29], 16 µM (≈ 26.6 µg/mL); in [30], no less than 64 µM; in test [31] it was 256 µM (≈ 426 µg/mL). Besides, the MIC is 32 µM (≈ 53.3 µg/mL) in test [32]; no less than 32 µM in test [33]; no less than 128 µM in test [34]; 16 µM (≈ 26.6 µg/mL) in test [35]; no less than 64 µM in test [36].
For the molecule `CC[C@H](C)[C@H](NC(=O)[C@H](CCCN=C(N)N)NC(=O)[C@H](CCCN=C(N)N)NC(=O)[C@@H]1CCCN1C(=O)[C@@H]1CCCN1C(=O)[C@@H](NC(=O)[C@@H]1CCCN1C(=O)[C@H](CCCN=C(N)N)NC(=O)[C@@H]1CCCN1C(=O)[C@H](CC(C)C)NC(=O)[C@H](Cc1ccc(O)cc1)NC(=O)[C@@H]1CCCN1C(=O)[C@@H]1CCCN1C(=O)[C@H](CCCCN)NC(=O)[C@H](CC(=O)O)NC(=O)[C@@H](N)C(C)C)[C@@H](C)O)C(=O)N[C@@H](Cc1ccc(O)cc1)C(=O)N[C@@H](CC(N)=O)C(=O)O` [VDKPPYLPRPTPPRRIYN], the MIC was no less than 57.4 µM in test [37] and 28.7 µM (≈ 62.5 µg/mL) in test [38].

What is called MIC is the lowest concentration that inhibits growth of the organism.
